Biological target: T1, APOL1 G1 (Homo sapiens, UniProt O14791, I384M/S342G)
T1 sequence (O14791 28-398 S342G/I384M): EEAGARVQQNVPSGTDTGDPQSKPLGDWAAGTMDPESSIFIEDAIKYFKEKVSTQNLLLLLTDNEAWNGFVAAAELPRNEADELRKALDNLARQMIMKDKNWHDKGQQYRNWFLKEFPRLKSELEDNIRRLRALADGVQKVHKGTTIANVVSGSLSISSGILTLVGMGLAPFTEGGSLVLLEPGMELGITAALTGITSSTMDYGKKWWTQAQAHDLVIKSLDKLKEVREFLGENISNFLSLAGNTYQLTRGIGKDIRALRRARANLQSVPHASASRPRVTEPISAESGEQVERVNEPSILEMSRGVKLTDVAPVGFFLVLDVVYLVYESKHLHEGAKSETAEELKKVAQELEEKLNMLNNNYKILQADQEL
Assay: Trypanosoma brucei brucei Lysis Assay Using APOL1 Recombinant Protein (AlamarBlue viability readout)
Format: cell-based
Details: Trypanosome Assay; IP50 = IC50 for cell proliferation; read-out: Trypanosome Assay IP50
From the text: Trypanosoma brucei brucei is a blood stream parasite to which human, gorillas, and baboons are immune due to the presence of the APOL1 protein in their HDL particles. The protein is uptaken by the parasite via the TbHpHb receptor located in its flagellar pocket and is bonded by the Hpr protein contained in the HDL particles which triggers the receptor endocytosis by the parasite.
Following endocytosis, the formed vesicle containing the HDL particle matures from early to late endosome, and subsequently to lysosome. The concomitant pH change in the lumen of the vesicle triggers the insertion of the APOL1 protein into the membrane of the late endosome/lysosome and hereby triggers lysosomal membrane permeabilization and as a further downstream event, trypanosome lysis. Trypanosoma brucei brucei is sensitive to lysis by all three APOL1 variants (G0, G1, and G2).
The Trypanosoma brucei brucei lysis assay is a lysis assay of the parasite using recombinant APOL1 protein variant followed by a fluorescent detection method of viability by the addition of AlamarBlue reagent to the assay well, a general metabolic redox indicator (AlamarBlue assay).
Briefly, the AlamarBlue active compound, resazurin, a blue, water soluble, non-toxic and cell permeable molecule, which can be followed by absorbance, is reduced by various metabolic pathways into resorufin, a red compound which can be followed by either absorbance or fluorescence. The assay allows the calculation of the percent viability (percent of living Trypanosomes remaining in each well) at the end of a lysis relative to the untreated condition by interpolation of fluorescent values (FLU) on a standard curve with a known amount of seeded trypanosome/well.
Trypanosoma brucei brucei (ATCC, Cat. No. PRA-382)
• Lister 427 VSG 221 bloodstream form.
Equipment • E1-Clip Tip pipette 12 channel adjustable 2-125 μL, Cat. No. 4672070BT • ThermoFisher MultiDrop 384, Cat. No. 5840300 • Multidrop • Agilent Bravo, Cat. No. G5409A • Bravo • SpectraMax M5 Assay Ready Plates (ARPs) • ARPs comes in two formats: • […] final top concentration with a 2.5 fold dilution down. • […] final top concentration with a 3 fold dilution down. • Both have a 10 point Dose response. • 0.1% DMSO final in the Black Assay Plate. • Compounds are diluted 1000 fold in the Black Assay Plate. • Each plate is designed for 14 compounds in duplicate. • In the final Black Assay Plate: • Column 1: Media only (no APOL1) (100% viable) • Column 2-23: 0.05 μg/mL APOL1 (˜EC90) (10% viable with APOL1) • Column 24: 0.1 μg/mL APOL1 (EC100) (Approx. […] Step 2, Day 4 • Centrifuge at 800×g for 5 minutes at room temperature. • Resuspend in 1 mL media. • Make a 1:25 fold dilution (10 μL/240 μL media). • Count on a hemocytometer (after adding parasites). • Let sit for 1-2 minutes for the parasites to settle. • Count should be approximately 100 viable motile parasites/16 grid or approximately 25×10^6 parasites/flask. • Passage the parasites by adding 1×10^6 parasites/T75 flask in 20 mL media. • Passage the parasites by adding 2.33×10^6 parasites/T175 flask in 46.6 mL media. • For every T75 flask should make enough for approximately 1.5×384 well assay plates. • For every T175 flask should make enough for approximately 3.8×384 well assay plates. Step 3, Day 6 • Centrifuge at 800×g for 5 minutes. • Resuspend in 3 mL assay media (No phenol red, no FBS) per 75 starting flask. • Resuspend in 7 mL assay media (No phenol red, no FBS) per 175 flask • Make a 1:25 fold dilution. • Count by hemocytometer. • Every T75 flask set up should have approximately 75×10^6 parasites/flask (verify doubling time=8.7 hours±1 hour). • Every T175 flask set up should have approximately 175×10^6 parasites/flask (verify doubling time=8.7 hours±1 hour). • Require 46×10^6 parasites per 384 well plate (at 120,000 parasites per well). […]

| SMILES | IC50 [nM] |
| --- | --- |
| C[C@H]1C[C@@]2(C[C@@H](c3cnc(C4CC4)nc3)N1)OCCc1cc(Cl)sc12 (racemic) [Compound 52] | < 50 |
| C[C@H]1C[C@@]2(C[C@@H](c3cccc(C#N)n3)N1)OCCc1cc(Cl)sc12 (racemic) [Compound 53] | 50 to 500 |
| C[C@H]1C[C@@]2(C[C@@H](c3ccc4c(c3)NC(=O)CO4)N1)OCCc1cc(Cl)sc12 (racemic) [Compound 54] | < 50 |
| Cc1ccc([C@@H]2C[C@]3(C[C@H](C)N2)OCCc2cc(Cl)sc23)cn1 (racemic) [Compound 55] | < 50 |
| C[C@H]1C[C@@]2(C[C@@H](c3cnn(CCO)c3)N1)OCCc1cc(Cl)sc12 (racemic) [Compound 56] | < 50 |
| C[C@H]1C[C@@]2(C[C@@H](c3cnc(N)nc3)N1)OCCc1cc(Cl)sc12 (racemic) [Compound 57] | < 50 |
| Cc1ccc([C@@H]2C[C@]3(C[C@H](C)N2)OCCc2cc(Cl)sc23)nn1 (racemic) [Compound 58] | < 50 |
| C[C@H]1C[C@@]2(C[C@@H](c3ccc(O)cn3)N1)OCCc1cc(Cl)sc12 (racemic) [Compound 59] | < 50 |
| CNc1ncc([C@@H]2C[C@]3(C[C@H](C)N2)OCCc2cc(Cl)sc23)cn1 (racemic) [Compound 60] | < 50 |
| COc1ccc([C@@H]2C[C@]3(C[C@H](C)N2)OCCc2cc(Cl)sc23)cc1C#N (racemic) [Compound 62] | < 50 |
| C[C@H]1C[C@@]2(C[C@@H](c3cnc(C(N)=O)cn3)N1)OCCc1cc(Cl)sc12 (racemic) [Compound 63] | < 50 |
| Cc1cncc([C@@H]2C[C@]3(C[C@H](C)N2)OCCc2cc(Cl)sc23)c1 (racemic) [Compound 64] | < 50 |
| C[C@H]1C[C@@]2(C[C@@H](c3cnn(-c4ccccc4)c3)N1)OCCc1cc(Cl)sc12 (racemic) [Compound 65] | < 50 |
| Cc1cc([C@@H]2C[C@]3(C[C@H](C)N2)OCCc2cc(Cl)sc23)on1 (racemic) [Compound 66] | < 50 |
| C[C@H]1C[C@@]2(C[C@@H](c3ccc4cn[nH]c4c3)N1)OCCc1cc(Cl)sc12 (racemic) [Compound 67] | < 50 |

Same assay, conditions: Trypanosome Assay; read-out: Trypanosome Assay Max Activity (%)

| SMILES | Emax [%] |
| --- | --- |
| C[C@H]1C[C@@]2(C[C@@H](c3cnc(C4CC4)nc3)N1)OCCc1cc(Cl)sc12 (racemic) [Compound 52] | 104 |
| C[C@H]1C[C@@]2(C[C@@H](c3cccc(C#N)n3)N1)OCCc1cc(Cl)sc12 (racemic) [Compound 53] | 106 |
| C[C@H]1C[C@@]2(C[C@@H](c3ccc4c(c3)NC(=O)CO4)N1)OCCc1cc(Cl)sc12 (racemic) [Compound 54] | 102 |
| Cc1ccc([C@@H]2C[C@]3(C[C@H](C)N2)OCCc2cc(Cl)sc23)cn1 (racemic) [Compound 55] | 112 |
| C[C@H]1C[C@@]2(C[C@@H](c3cnn(CCO)c3)N1)OCCc1cc(Cl)sc12 (racemic) [Compound 56] | 116 |
| C[C@H]1C[C@@]2(C[C@@H](c3cnc(N)nc3)N1)OCCc1cc(Cl)sc12 (racemic) [Compound 57] | 105 |
| Cc1ccc([C@@H]2C[C@]3(C[C@H](C)N2)OCCc2cc(Cl)sc23)nn1 (racemic) [Compound 58] | 100 |
| C[C@H]1C[C@@]2(C[C@@H](c3ccc(O)cn3)N1)OCCc1cc(Cl)sc12 (racemic) [Compound 59] | 116 |
| CNc1ncc([C@@H]2C[C@]3(C[C@H](C)N2)OCCc2cc(Cl)sc23)cn1 (racemic) [Compound 60] | 102 |
| COc1ccc([C@@H]2C[C@]3(C[C@H](C)N2)OCCc2cc(Cl)sc23)cc1C#N (racemic) [Compound 62] | 95 |
| C[C@H]1C[C@@]2(C[C@@H](c3cnc(C(N)=O)cn3)N1)OCCc1cc(Cl)sc12 (racemic) [Compound 63] | 104 |
| C[C@H]1C[C@@]2(C[C@@H](c3cnn(-c4ccccc4)c3)N1)OCCc1cc(Cl)sc12 (racemic) [Compound 65] | 105 |
| Cc1cc([C@@H]2C[C@]3(C[C@H](C)N2)OCCc2cc(Cl)sc23)on1 (racemic) [Compound 66] | 103 |
| C[C@H]1C[C@@]2(C[C@@H](c3ccc4cn[nH]c4c3)N1)OCCc1cc(Cl)sc12 (racemic) [Compound 67] | 105 |

Biological target: T2, APOL1 (Homo sapiens, UniProt O14791)
T2 sequence (O14791 1-398 S342G/I384M): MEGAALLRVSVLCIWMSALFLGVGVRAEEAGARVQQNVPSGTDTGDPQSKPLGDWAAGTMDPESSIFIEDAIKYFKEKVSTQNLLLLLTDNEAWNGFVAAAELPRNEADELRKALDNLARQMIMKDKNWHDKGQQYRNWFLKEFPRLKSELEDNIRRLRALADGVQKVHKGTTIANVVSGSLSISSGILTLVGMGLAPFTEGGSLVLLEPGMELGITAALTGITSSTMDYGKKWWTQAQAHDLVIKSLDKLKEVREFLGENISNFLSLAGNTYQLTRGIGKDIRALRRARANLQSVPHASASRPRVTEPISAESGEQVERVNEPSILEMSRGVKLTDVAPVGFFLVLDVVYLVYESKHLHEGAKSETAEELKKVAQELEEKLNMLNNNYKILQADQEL
Assay: Multi-Tox Assay (MultiTox-Fluor Multiplex Cytotoxicity Assay in tet-inducible APOL1 T-REx-HEK293 cells; Table 46 does not say which APOL1 variant G0/G1/G2)
Format: cell-based
Details: APOL1 variant not given

| SMILES | Multi-Tox Assay Max Activity (%) | IC90 [nM] |
| --- | --- | --- |
| C[C@H]1C[C@@]2(C[C@@H](c3cnc(C4CC4)nc3)N1)OCCc1cc(Cl)sc12 (racemic) [Compound 52] | 99.7 | – |
| C[C@H]1C[C@@]2(C[C@@H](c3cccc(C#N)n3)N1)OCCc1cc(Cl)sc12 (racemic) [Compound 53] | 99.3 | – |
| C[C@H]1C[C@@]2(C[C@@H](c3ccc4c(c3)NC(=O)CO4)N1)OCCc1cc(Cl)sc12 (racemic) [Compound 54] | 100.0 | < 50 |
| Cc1ccc([C@@H]2C[C@]3(C[C@H](C)N2)OCCc2cc(Cl)sc23)cn1 (racemic) [Compound 55] | 99.7 | – |
| C[C@H]1C[C@@]2(C[C@@H](c3cnn(CCO)c3)N1)OCCc1cc(Cl)sc12 (racemic) [Compound 56] | 99.8 | – |
| C[C@H]1C[C@@]2(C[C@@H](c3cnc(N)nc3)N1)OCCc1cc(Cl)sc12 (racemic) [Compound 57] | 99.7 | – |
| Cc1ccc([C@@H]2C[C@]3(C[C@H](C)N2)OCCc2cc(Cl)sc23)nn1 (racemic) [Compound 58] | 99.7 | – |
| C[C@H]1C[C@@]2(C[C@@H](c3ccc(O)cn3)N1)OCCc1cc(Cl)sc12 (racemic) [Compound 59] | 99.3 | – |
| CNc1ncc([C@@H]2C[C@]3(C[C@H](C)N2)OCCc2cc(Cl)sc23)cn1 (racemic) [Compound 60] | 99.7 | – |

Same assay, conditions: IP50 = IC50 for cell proliferation, APOL1 variant not given

| SMILES | IC50 [nM] |
| --- | --- |
| C[C@H]1C[C@@]2(C[C@@H](c3cnc(C4CC4)nc3)N1)OCCc1cc(Cl)sc12 (racemic) [Compound 52] | < 50 |
| C[C@H]1C[C@@]2(C[C@@H](c3cccc(C#N)n3)N1)OCCc1cc(Cl)sc12 (racemic) [Compound 53] | < 50 |
| C[C@H]1C[C@@]2(C[C@@H](c3ccc4c(c3)NC(=O)CO4)N1)OCCc1cc(Cl)sc12 (racemic) [Compound 54] | < 50 |
| Cc1ccc([C@@H]2C[C@]3(C[C@H](C)N2)OCCc2cc(Cl)sc23)cn1 (racemic) [Compound 55] | < 50 |
| C[C@H]1C[C@@]2(C[C@@H](c3cnn(CCO)c3)N1)OCCc1cc(Cl)sc12 (racemic) [Compound 56] | < 50 |
| C[C@H]1C[C@@]2(C[C@@H](c3cnc(N)nc3)N1)OCCc1cc(Cl)sc12 (racemic) [Compound 57] | < 50 |
| Cc1ccc([C@@H]2C[C@]3(C[C@H](C)N2)OCCc2cc(Cl)sc23)nn1 (racemic) [Compound 58] | < 50 |
| C[C@H]1C[C@@]2(C[C@@H](c3ccc(O)cn3)N1)OCCc1cc(Cl)sc12 (racemic) [Compound 59] | < 50 |
| CNc1ncc([C@@H]2C[C@]3(C[C@H](C)N2)OCCc2cc(Cl)sc23)cn1 (racemic) [Compound 60] | < 50 |
| COc1ccc([C@@H]2C[C@]3(C[C@H](C)N2)OCCc2cc(Cl)sc23)cc1C#N (racemic) [Compound 62] | < 50 |
| C[C@H]1C[C@@]2(C[C@@H](c3cnc(C(N)=O)cn3)N1)OCCc1cc(Cl)sc12 (racemic) [Compound 63] | < 50 |
| Cc1cncc([C@@H]2C[C@]3(C[C@H](C)N2)OCCc2cc(Cl)sc23)c1 (racemic) [Compound 64] | < 50 |
| C[C@H]1C[C@@]2(C[C@@H](c3cnn(-c4ccccc4)c3)N1)OCCc1cc(Cl)sc12 (racemic) [Compound 65] | < 50 |
| Cc1cc([C@@H]2C[C@]3(C[C@H](C)N2)OCCc2cc(Cl)sc23)on1 (racemic) [Compound 66] | < 50 |
| C[C@H]1C[C@@]2(C[C@@H](c3ccc4cn[nH]c4c3)N1)OCCc1cc(Cl)sc12 (racemic) [Compound 67] | < 50 |
